Measurements published in patent US10681909B2, “Herbicidal triazoles” (FMC Corporation, priority 2014, dated 2020).

What was measured:
corn = test: Test A preemergence; type: in vivo, Zea mays; settings: Zea mays, pre-emergence, 240 h, 0 to 100 scale (0 no effect, 100 complete control); for Corn plant response rating (crop injury, 0 = no effect, 100 = complete kill) at 125 g/ha: 125 g ai/ha; for Corn plant response rating (crop injury, 0 = no effect, 100 = complete kill) at 500 g/ha: 500 g ai/ha, approx. 10 d
Outline: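 Herbicidal response was scored on plants treated pre- or postemergence with surfactant-containing, non-phytotoxic solvent formulations. Preemergence meant a directed spray onto soil (loam–sand) holding sown seed; postemergence plants were at one to two leaves.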

johnsongrass = test: Test C preemergence; type: in vivo, Sorghum halepense; settings: for Plant response rating (scale of 0 to 100 where 0 is no effect and 100 is complete control): Johnsongrass, preemergence; for Johnsongrass plant response rating (0 to 100): Preemergence, visual rating after 13 to 15 d
Source text: (§1) Seeds of plant species selected from blackgrass (Alopecurus myosuroides), ryegrass, Italian (Italian ryegrass, Lolium multiflorum), wheat (winter wheat, Triticum aestivum), galium (catchweed bedstraw, Galium aparine), corn (Zea mays), crabgrass, large (large crabgrass, Digitaria sanguinalis), foxtail, giant, (giant foxtail, Setaria faberii), johnsongrass (Sorghum halepense), lambsquarters (Chenopodium album), morningglory (Ipomoea coccinea), nutsedge, yellow (yellow nutsedge, Cyperus esculentus), pigweed (Amaranthus retroflexus), ragweed (common ragweed, Ambrosia elatior), soybean (Glycine max), barnyardgrass (Echinochloa crus-galli), oilseed rape (Brassica napus), waterhemp (common waterhemp, Amaranthus rudis), and velvetleaf (Abutilon theophrasti) were planted into a blend of loam soil and sand and treated preemergence with test chemicals formulated in a non-phytotoxic solvent mixture which included a surfactant. At the same time, plants selected from these crop and weed species and also chickweed (common chickweed, Stellaria media), oat, wild (wild oat, Avena fatua), and kochia (Kochia scoparia), were planted in pots containing Sunshine Redi-Earth® planting medium comprising spaghnum peat moss, vermiculite, starter nutrients and dolomitic limestone and treated with postemergence applications of test chemicals formulated in the same manner. Plants ranged in height from 2 to 18 cm (1- to 4-leaf stage) for postemergence treatments. […] A dash (-) response means no test result.

soybean = test: Test C preemergence; type: in vivo, Glycine max; settings: for Soybean plant response rating (0 to 100): Preemergence, visual rating after 13 to 15 d; for Plant response rating (scale of 0 to 100 where 0 is no effect and 100 is complete control): Soybean, preemergence, 250 g ai/ha
Source text: as §1

galium = test: Test A postemergence; type: in vivo, Galium aparine; settings: 0 to 100 scale (0 no effect, 100 complete control), approx. 10 d
Outline: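 Visual injury score, 0 (no effect) to 100 (complete control), taken about 10 d after treatment against untreated greenhouse controls. Chemicals formulated in non-phytotoxic solvent plus surfactant; preemergence by directed soil spray onto sown loam/sand, postemergence onto one- to two-leaf plants.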

ryegrass, Ital. = test: Test D preemergence; type: in vivo, Lolium multiflorum; settings: for Plant response rating: Ryegrass, Ital.: scale 0 to 100
Source text: (§2) Seeds of plant species selected from bluegrass (annual bluegrass, Poa annua), blackgrass (Alopecurus myosuroides), canarygrass (Phalaris minor), chickweed (common chickweed, Stellaria media), galium (catchweed bedstraw, Galium aparine), bromegrass, down (downy bromegrass, Bromus tectorum), Russian thistle (Salsola kali), field poppy (Papaver rhoeas), field violet (Viola arvensis), foxtail, green (green foxtail, Setaria viridis), deadnettle (henbit deadnettle, Lamium amplexicaule), ryegrass, Ital. (Italian ryegrass, Lolium multiflorum), kochia (Kochia scoparia), lambsquarters (Chenopodium album), oilseed rape (Brassica napus), pigweed (Amaranthus retroflexus), chamomile (scentless chamomile, Matricaria inodora), speedwell (bird's-eye speedwell, Veronica persica), barley, spring (spring barley, Hordeum vulgare), wheat, spring (spring wheat, Triticum aestivum), buckwheat, wild (wild buckwheat, Polygonum convolvulus), wild mustard (Sinapis arvensis), oat, wild (wild oat, Avena fatua), radish, wild (wild radish, Raphanus raphanistrum), […]), barley, winter (winter barley, Hordeum vulgare), and wheat, winter (winter wheat, Triticum aestivum) were planted into a silt loam soil and treated preemergence with test chemicals formulated in a non-phytotoxic solvent mixture which included a surfactant. At the same time, these species were planted in pots containing Sunshine Redi-Earth® planting medium comprising spaghnum peat moss, vermiculite, starter nutrients and dolomitic limestone and treated with postemergence applications of the test chemicals formulated in the same manner. Plants ranged in height from 2 to 18 cm (1- to 4-leaf stage). Treated plants and controls were maintained in a controlled growth environment for 14 to 21 d after which time all species were compared to controls and visually evaluated. […] A dash (-) response means no test result.

chamomile = test: Test D postemergence; type: in vivo, Matricaria inodora; settings: scale 0 to 100
Source text: as §2

wheat, winter = test: Test D postemergence; type: in vivo, Triticum aestivum; settings: scale 0 to 100
Source text: as §2

wheat, spring = test: Test D postemergence; type: in vivo, Triticum aestivum; settings: scale 0 to 100
Source text: as §2

lambsquarters = test: Test D postemergence; type: in vivo, Chenopodium album; settings: scale 0 to 100
Source text: as §2

CCn1nc(-c2ccc(F)cc2)nc1C(=O)c1ccnc(C(F)(F)F)c1 [Compound 19, [1-ethyl-3-(4-fluorophenyl)-1H-1,2,4-triazol-5-yl][2-(trifluoromethyl)-4-pyridinyl]methanone]
Corn plant response rating (crop injury, 0 = no effect, 100 = complete kill) at 125 g/ha (corn): 0% | Corn plant response rating (crop injury, 0 = no effect, 100 = complete kill) at 500 g/ha (corn): 0%

CCCc1nc(-c2ccc(F)cc2)nn1Cc1ccnc(C(F)(F)F)c1 [Compound 6, 4-[[3-(4-fluorophenyl)-5-propyl-1H-1,2,4-triazol-1-yl]methyl]-2-(trifluoromethyl)pyridine]
Plant response rating (scale of 0 to 100 where 0 is no effect and 100 is complete control) (johnsongrass; 125 g ai/ha): 85 | Plant response rating (scale of 0 to 100 where 0 is no effect and 100 is complete control) (johnsongrass; 250 g ai/ha): 100 | Johnsongrass plant response rating (0 to 100) (johnsongrass; 31 g ai/ha): 60 | Johnsongrass plant response rating (0 to 100) (johnsongrass; 62 g ai/ha): 75 | Soybean plant response rating (0 to 100) (soybean; 31 g ai/ha): 5 | Soybean plant response rating (0 to 100) (soybean; 62 g ai/ha): 5 | Plant response rating (scale of 0 to 100 where 0 is no effect and 100 is complete control) (soybean): 70 | Corn plant response rating (crop injury, 0 = no effect, 100 = complete kill) at 125 g/ha (corn): 20% | Corn plant response rating (crop injury, 0 = no effect, 100 = complete kill) at 500 g/ha (corn): 30%

CCOc1nc(-c2ccc(Cl)cc2)nn1Cc1ccnc(C(F)(F)F)c1 [Compound 26]
Plant response rating, Galium (galium; 31 g ai/ha): 60 | Plant response rating, Galium (galium; 125 g ai/ha): 90

COc1nc(-c2ccc(C(F)(F)F)cc2)nn1Cc1ccnc(C(F)(F)F)c1 [Compound 25]
Plant response rating, Galium (galium; 31 g ai/ha): 60 | Plant response rating, Galium (galium; 125 g ai/ha): 80

CS(=O)(=O)c1nc(-c2ccc(F)cc2)nn1Cc1ccnc(C(F)(F)F)c1 [Compound 29, 4-[[3-(4-fluorophenyl)-5-(methylsulfonyl)-1H-1,2,4-triazole-1-yl]methyl]-2-(trifluoromethyl)pyridine]
Corn plant response rating (crop injury, 0 = no effect, 100 = complete kill) at 125 g/ha (corn): 0% | Corn plant response rating (crop injury, 0 = no effect, 100 = complete kill) at 500 g/ha (corn): 0%

CCn1nc(-c2ccc(F)cc2)nc1C(O)c1ccnc(C(F)(F)F)c1 (stereo not drawn) [Compound 15, α-[1-Ethyl-3-(4-fluorophenyl)-1H-1,2,4-triazol-5-yl]-2-(trifluoromethyl)-4-pyridinemethanol]
Corn plant response rating (crop injury, 0 = no effect, 100 = complete kill) at 125 g/ha (corn): 0% | Corn plant response rating (crop injury, 0 = no effect, 100 = complete kill) at 500 g/ha (corn): 0%

Cn1nc(-c2ccc(F)cc2)nc1Oc1cccc(C(F)(F)F)c1 [Compound 5, 3-(4-fluorophenyl)-1-methyl-5-[3-(trifluoromethyl)phenoxy]-1H-1,2,4-triazole]
Corn plant response rating (crop injury, 0 = no effect, 100 = complete kill) at 125 g/ha (corn): 0% | Corn plant response rating (crop injury, 0 = no effect, 100 = complete kill) at 500 g/ha (corn): 0%

COc1nc(-c2ccc(F)cc2)nn1Cc1ccnc(C(F)(F)F)c1 [Compound 9, 4-[[3-(4-fluorophenyl)-5-methoxy-1H-1,2,4-triazol-1-yl]methyl]-2-(trifluoromethyl)pyridine]
Plant response rating (scale of 0 to 100 where 0 is no effect and 100 is complete control) (johnsongrass; 125 g ai/ha): 65 | Plant response rating (scale of 0 to 100 where 0 is no effect and 100 is complete control) (johnsongrass; 250 g ai/ha): 80 | Johnsongrass plant response rating (0 to 100) (johnsongrass; 31 g ai/ha): 5 | Johnsongrass plant response rating (0 to 100) (johnsongrass; 62 g ai/ha): 20 | Soybean plant response rating (0 to 100) (soybean; 31 g ai/ha): 0 | Soybean plant response rating (0 to 100) (soybean; 62 g ai/ha): 0 | Plant response rating (scale of 0 to 100 where 0 is no effect and 100 is complete control) (soybean): 40 | Corn plant response rating (crop injury, 0 = no effect, 100 = complete kill) at 125 g/ha (corn): 0% | Corn plant response rating (crop injury, 0 = no effect, 100 = complete kill) at 500 g/ha (corn): 40%

COc1nc(-c2ccccc2)nn1Cc1ccnc(C(F)(F)F)c1 [Compound 32]
Plant response rating (scale of 0 to 100 where 0 is no effect and 100 is complete control) (johnsongrass; 125 g ai/ha): 30 | Plant response rating (scale of 0 to 100 where 0 is no effect and 100 is complete control) (johnsongrass; 250 g ai/ha): 60 | Johnsongrass plant response rating (0 to 100) (johnsongrass; 31 g ai/ha): 0 | Johnsongrass plant response rating (0 to 100) (johnsongrass; 62 g ai/ha): 0 | Plant response rating, Galium (galium; 125 g ai/ha): 60 | Plant response rating, Galium (galium; 500 g ai/ha): 90 | Soybean plant response rating (0 to 100) (soybean; 31 g ai/ha): 0 | Soybean plant response rating (0 to 100) (soybean; 62 g ai/ha): 0 | Plant response rating (scale of 0 to 100 where 0 is no effect and 100 is complete control) (soybean): 5

CCCOc1nc(-c2ccccc2)nn1Cc1ccnc(C(F)(F)F)c1 [Compound 33]
Plant response rating, Galium (galium; 125 g ai/ha): 70 | Plant response rating, Galium (galium; 500 g ai/ha): 80

COc1nc(-c2ccc(Cl)cc2)nn1Cc1ccnc(C(F)(F)F)c1 [Compound 28]
Plant response rating (0 to 100), Ryegrass, Ital. (ryegrass, Ital.; 16 g ai/ha, 0 is no effect, 100 is complete control): 25 | Plant response rating: Ryegrass, Ital. (ryegrass, Ital.; 62 g ai/ha): 25 | Plant response rating: Ryegrass, Ital. (ryegrass, Ital.; 125 g ai/ha): 55 | Plant response rating, Galium (galium; 125 g ai/ha): 50 | Plant response rating, Galium (galium; 500 g ai/ha): 80 | Plant response rating: Chamomile (chamomile; 16 g ai/ha): 10 | Plant response rating: Chamomile (chamomile; 31 g ai/ha): 15 | Plant response rating: Chamomile (chamomile; 62 g ai/ha): 15 | Plant response rating: Chamomile (chamomile; 125 g ai/ha): 25 | Plant response rating: Wheat, Winter (wheat, winter; 16 g ai/ha): 15 | Plant response rating: Wheat, Winter (wheat, winter; 31 g ai/ha): 20 | Plant response rating: Wheat, Winter (wheat, winter; 62 g ai/ha): 25 | Plant response rating: Wheat, Winter (wheat, winter; 125 g ai/ha): 20 | Plant response rating: Wheat, Spring (wheat, spring; 16 g ai/ha): 10 | Plant response rating: Wheat, Spring (wheat, spring; 31 g ai/ha): 15 | Plant response rating: Wheat, Spring (wheat, spring; 62 g ai/ha): 20 | Plant response rating: Wheat, Spring (wheat, spring; 125 g ai/ha): 25 | Plant response rating: Lambsquarters (lambsquarters; 16 g ai/ha): 75 | Plant response rating: Lambsquarters (lambsquarters; 31 g ai/ha): 90 | Plant response rating: Lambsquarters (lambsquarters; 62 g ai/ha): 85 | Plant response rating: Lambsquarters (lambsquarters; 125 g ai/ha): 95

Cn1nc(-c2ccc(F)cc2)nc1C(O)c1ccnc(C(F)(F)F)c1 (stereo not drawn) [Compound 14, α-[3-(4-fluorophenyl)-1-methyl-1H-1,2,4-triazol-5-yl]-2-(trifluoromethyl)-4-pyridinemethanol]
Corn plant response rating (crop injury, 0 = no effect, 100 = complete kill) at 125 g/ha (corn): 0% | Corn plant response rating (crop injury, 0 = no effect, 100 = complete kill) at 500 g/ha (corn): 0%

CCCn1nc(-c2ccc(F)cc2)nc1Cc1ccnc(C(F)(F)F)c1 [Compound 17, 4-[[3-(4-fluorophenyl)-1-propyl-1H-1,2,4-triazol-5-yl]methyl]-2-(trifluoromethyl)pyridine]
Corn plant response rating (crop injury, 0 = no effect, 100 = complete kill) at 125 g/ha (corn): 30% | Corn plant response rating (crop injury, 0 = no effect, 100 = complete kill) at 500 g/ha (corn): 40%
